Reference: the supplement of paper PMC11208160

Experiment: recombinant barcode read abundance after kanamycin selection (control-corrected) (log10(CPM+1)); higher = more efficient recombination; sequences stand for … in AGTGCAGAGAAAATCGGCCAGTTTTCTCTGCCTGCAGTCCGCATGCCGT…AGATTTATGCAGCGGACTGCCTTTCTCCCAAAGTGATAAACCGGACAGTATCATGGACCGGTTTTCCCGGTAATCCGTATTTGCAAGGTTGGTTTCACT; site = the 11-nt target
In short: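 Pooled E. coli screen pairing targets with IS621 bridge RNA target-binding loops. Each oligo (promoter, target, barcode, J23119-driven first 104 bridge RNA bases) was Gibson-cloned into a vector with the remaining 73 bp and T7-inducible recombinase, then co-electroporated with a donor plasmid. Two replicates each were plated on chloramphenicol/ampicillin LB agar (control) or chloramphenicol/ampicillin/kanamycin with 0.1 mM IPTG. Recombination efficiency is recombinant-junction barcode counts as CPM, averaged, control-corrected, reported as log10(CPM+1).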
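Note: IS621 recombinase and bridge RNA in Escherichia coli cells.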

Sequence	recombinant barcode read abundance (log10)
TCCGACACTTGGGTTCTAACCTGTTGCCT (site TCCGACACTAG)	1.95
CCTCGCACTTGGGTTCTAACCTGTTGCCT (site CGTCGCACTAG)	0.133
TTGCAAACTTGGGTTCTAACCTGTTGCCT (site TTGCAAACTAG)	0.501
CACTTGACTTGGGTTCTAACCTGTTGCCT (site CACTTGCCTAG)	0.213
TAGCCTTCTTGGGTTCTAACCTGTTGCTG (site TAGCCTTCTCA)	1.02
GAGACATCTTGGGTTCTAACCTGTTGCCT (site GAGACATCTAG)	0.732
TGGGGCCCTTGGGTTCTAACCTGTTGCCG (site TGGGGCCCTCG)	1.9
AGAGCGACTTGGGTTCTAACCTGTTGCCT (site AGAGGGACTAG)	0.587
AGTTCATCTTGGGTTCTAACCTGTTGCAT (site AGTTCATCTAT)	0.0989
ATCGGGCCTTGGGTTCTAACCTGTTGCCT (site TTCGGGCCTAG)	0.0744
AACCGCCCTTGGGTTCTAACCTGTTGCCT (site AACCGCCCTAG)	0.478
TAGTTCACTTGGGTTCTAACCTGTTGCAT (site TAGCTCACTAT)	0.0603
GTCACTACTTGGGTTCTAACCTGTTGCCG (site GTCTCTACTCG)	0.127
TGAGCGGCTTGGGTTCTAACCTGTTGCCT (site TGAGAGGCTAG)	0.143
CTGTCTACTTGGGTTCTAACCTGTTGCCT (site CTGTCTACTAG)	0.0179
ACATGTCCTTGGGTTCTAACCTGTTGCGT (site ACATGTCCTAG)	0.23
AAGTGTCCTTGGGTTCTAACCTGTTGCAT (site AAGTTTCCTAT)	0.0208
AATGGGTCTTGGGTTCTAACCTGTTGCCT (site AATGGGCCTAG)	0.132
GCGTCGGCTTGGGTTCTAACCTGTTGCCT (site GCTTCGGCTAG)	0.405
GAGGACTCTTGGGTTCTAACCTGTTGCCG (site GAGGACTCTGG)	0.458
CTAGAAGCTTGGGTTCTAACCTGTTGCGG (site CTGGAACCTCC)	0.401
GCTGCGACTTGGGTTCTAACCTGTTGCCT (site GCGGCGACTAG)	0.0147

Sequence	recombinant barcode read abundance (log10)
GGGAACCCTTGGGTTCTAACCTGTTGCAT (site AGGAACTCTAT)	0.115
GGTGGGGCTTGGGTTCTAACCTGTTGCTG (site GGTTGAGCTCA)	0.536
ACGTAACCTTGGGTTCTAACCTGTTGCCT (site ACGTAACCTAG)	0.0547
GGCTGGGCTTGGGTTCTAACCTGTTGCCG (site GGCTGGGCTCG)	0.125
GAGGGCACTTGGGTTCTAACCTGTTGCCA (site GAGGGCACTTG)	0.917
CGACGTACTTGGGTTCTAACCTGTTGCCT (site CGGCGTACTAG)	0.0649
TGCCTATCTTGGGTTCTAACCTGTTGCCT (site TACCTATCTAG)	0.234
CTGATTACTTGGGTTCTAACCTGTTGCCT (site CTGATGACTAG)	0.0346
CTCGGATCTTGGGTTCTAACCTGTTGCCT (site CTCGGACCTAG)	0.391
CGGACTGCTTGGGTTCTAACCTGTTGCCT (site CGGACTGCTAG)	0.374
TATTGGACTTGGGTTCTAACCTGTTGCAA (site TATTGGACTCT)	0.017
AATAGTGCTTGGGTTCTAACCTGTTGCCT (site ACTAGTGCTAG)	0.101
CGAAAATCTTGGGTTCTAACCTGTTGCCT (site CGCAAATCTAG)	1.33
AATCGAACTTGGGTTCTAACCTGTTGCCT (site AATCGAACTAG)	0.297
TCACGTCCTTGGGTTCTAACCTGTTGCCT (site TCACGTCCTAG)	0.456
GTCTCTACTTGGGTTCTAACCTGTTGCGG (site GTCGCTACTCC)	0
GAGTAGTCTTGGGTTCTAACCTGTTGCTT (site GAGTAGACTAA)	0.941
GTATGAGCTTGGGTTCTAACCTGTTGCGG (site GTATGTGCTCC)	0.255
ACCAATTCTTGGGTTCTAACCTGTTGCCT (site ACCAATGCTAG)	0.0727
TTAACTACTTGGGTTCTAACCTGTTGCTA (site TTAACTACTCA)	0.0937
GAGCTAGCTTGGGTTCTAACCTGTTGCGT (site GAGCTAGCTAC)	2.41
ATGTGCACTTGGGTTCTAACCTGTTGCAG (site CTGTGCACTCG)	0.63

Sequence	recombinant barcode read abundance (log10)
CACACAGCTTGGGTTCTAACCTGTTGCCT (site CACACAGCTAG)	0.559
TCTGGGGCTTGGGTTCTAACCTGTTGCGG (site TCTGGGGCTCA)	0.376
ACCCAATCTTGGGTTCTAACCTGTTGCCT (site ACCCAAGCTAG)	0.207
CTAGACTCTTGGGTTCTAACCTGTTGCTA (site CTAGACTCTGA)	0.117
GTGTCCTCTTGGGTTCTAACCTGTTGCGT (site CAAAAGGCTCG)	0.039
TAGTTAGCTTGGGTTCTAACCTGTTGCCA (site TAGTTAGCTAG)	0.0117
GGATTTACTTGGGTTCTAACCTGTTGCCT (site GGATTTACTAG)	0.276
GGTCTAACTTGGGTTCTAACCTGTTGCCT (site GGTCTAACTAG)	0.649
TACCTGACTTGGGTTCTAACCTGTTGCCT (site TACCCGACTAG)	0.355
TCCACAACTTGGGTTCTAACCTGTTGCCT (site TCCACATCTAG)	0.193
ACTTGTTCTTGGGTTCTAACCTGTTGCCT (site TCTTGTTCTAG)	0.0997
ATGCCCTCTTGGGTTCTAACCTGTTGCCT (site ATGCCCTCTAG)	2.07
CCATCAACTTGGGTTCTAACCTGTTGCCT (site CCATGAACTTG)	0.0637
AATTTGACTTGGGTTCTAACCTGTTGCCT (site AACTTGACTAG)	0.0252
TCTCACCCTTGGGTTCTAACCTGTTGCCT (site TCTGATCCTAG)	0.0773
AGGGAGACTTGGGTTCTAACCTGTTGCTT (site AGGGAGACTAA)	2.39
GCATCTACTTGGGTTCTAACCTGTTGCCT (site GCATCTACTAG)	0.136
CGCGCGGCTTGGGTTCTAACCTGTTGCCT (site CGCGGGGCTAG)	0.266
ACCCAATCTTGGGTTCTAACCTGTTGCCT (site ACCCAATCTAG)	1.47
GATCGATCTTGGGTTCTAACCTGTTGCAT (site GATCGATCTAG)	0.307
GTGGAGTCTTGGGTTCTAACCTGTTGCCT (site GTAGAGTCTAA)	0.577
GAGCGTTCTTGGGTTCTAACCTGTTGCCT (site GAGCGTTCTAG)	1.47

Sequence	recombinant barcode read abundance (log10)
CACTTGTCTTGGGTTCTAACCTGTTGCCT (site CACTTGGCTAG)	0.283
CAAAGTCCTTGGGTTCTAACCTGTTGCTT (site CAAAGTCCTAA)	0.437
AGGCATCCTTGGGTTCTAACCTGTTGCCT (site AGGCATCCTAG)	0.147
AGCATTGCTTGGGTTCTAACCTGTTGCCT (site AGCATTGCTAG)	0.235
TCCCAGTCTTGGGTTCTAACCTGTTGCTT (site TCCCAGTCTAA)	0.681
CTTCATTCTTGGGTTCTAACCTGTTGCCT (site TGCTGGGCTCA)	0.0303
ACCCAACCTTGGGTTCTAACCTGTTGCCT (site ACCCAAACTAG)	0.242
TGGTAACCTTGGGTTCTAACCTGTTGCCT (site AGGTAACCTAG)	0.0194
CTAGTGGCTTGGGTTCTAACCTGTTGCCG (site TCGTCACCTAT)	0.0446
AATTAAGCTTGGGTTCTAACCTGTTGCCT (site AATTAAGCTAG)	1.28
CTCCTCCCTTGGGTTCTAACCTGTTGCCT (site CTCCTCTCTAG)	0.275
AAGAGAGCTTGGGTTCTAACCTGTTGCCT (site AAGACAGCTAG)	0.154
ATCTTACCTTGGGTTCTAACCTGTTGCCT (site ATCTTAGCTAG)	0.0332
GGGGAAGCTTGGGTTCTAACCTGTTGCCT (site GTGGAAGCTAG)	0.291
AGTTCATCTTGGGTTCTAACCTGTTGCAT (site CTAGATGCTTC)	0
ACCAATACTTGGGTTCTAACCTGTTGCCT (site ACCAATGCTAG)	0.939
CTATTCGCTTGGGTTCTAACCTGTTGCCT (site CTATTCTCTAG)	0.218
GTTTGGCCTTGGGTTCTAACCTGTTGCTT (site GTTTGACCTAA)	0
CTTCGAGCTTGGGTTCTAACCTGTTGCGG (site CTTCGAGCTCG)	0.027
CTCGGATCTTGGGTTCTAACCTGTTGCTC (site CTCGGATCTTA)	0.138
